In patent US5834257A, “α-agarase and production process of oligosaccharides and monosaccharides” (Japan Tobacco Inc., priority 1995, dated 1998):

Test system: α-NAOS hydrolase (α-agarase) derived from Vibrio sp. JT0107-L4, N-terminal sequence SEQ ID NO:2
Test: Michaelis constant and maximum velocity by Lineweaver-Burk plot, neoagarobiose degradation measured by HPLC
Type: biochemical
Conditions: substrate neoagarobiose, 20 mM potassium phosphate buffer pH 7.8, 30° C.
Experimental: The activity determination of purified or partially purified products of this enzyme is conducted as follows. After an enzyme reaction with neoagarobiose as the substrate, the amount of degraded neoagarobiose is calculated from the amount of intact neoagarobiose which is determined by HPLC. Details are as follows. A 0.1% solution of neoagarobiose dissolved in 20 mM potassium phosphate buffer (pH 7.8) is prepared. This solution, as the substrate, in a volume of 90 μl was mixed with 10 μl of the enzyme solution. The mixed solution is incubated at 30° C. for 5 to 30 minutes, preferably for 10 minutes; the reaction is stopped by heating in boiling water for 1 minute. This reaction solution in a volume of 10 μl is applied to a column, Capcell pak C-18 (manufactured by Shiseido) which is of 4.5 mm in internal diameter and 250 mm in length, and eluted at a flow rate of 1 ml/min using water as the eluent; the amount of neoagarobiose not degraded by the enzyme reaction, which has a retention time of about 4.5 minutes, is quantified. The amount of degraded neoagarobiose is calculated inversely from the value in this measurement, assuming that the amount of enzyme degrading 1 μmol neoagarobiose per minute is 1 U. Neoagarobiose consisting of 3,6-anhydro-L-galactose and D-galactose through α-1,3 bond was used as the substrate. Various substrate solutions of different concentration were prepared. […]

- Km: 4.28 ± 5 mM
- maximum velocity (1 U = 1 μmol neoagarobiose degraded per minute): 87 U/mg-protein
Compound: OC[C@H]1OC(O)[C@H](O)[C@@H](O[C@@H]2O[C@H]3CO[C@@H]([C@@H]2O)[C@@H]3O)[C@H]1O (some centres unmarked) [Neoagarobiose]
